Measurements as given in ChEMBL document CHEMBL5150017, “Mechanism of Action and Structure-Activity Relationship of α-Conotoxin Mr1.1 at the Human α9α10 Nicotinic Acetylcholine Receptor” (J Med Chem, 2022).
The source made the active and inactive calls. No cut-off for these calls is given here. Positions of bridges follow the written chain, without caps; N, C: chain ends. Non-standard residues stand in square brackets, D forms with d. Residues, ends and D or L forms follow the SMILES beside them. ξ: configuration not given here. ξDap = NCC(N)C(=O)O

Tests used:
Rattus norvegicus = species on record: Rattus norvegicus; experiment: Analgesic activity in chronic constriction injury-induced mechanical pain rat model assessed as increase in paw withdrawal latency measured after 24 hrs; format: functional, organism-based; details: DDE = dose-dependent effect
[1] = biological target: T1, Neuronal acetylcholine receptor; alpha3/beta2 (Homo sapiens, UniProt P17787+P32297); experiment: Antagonist activity at human alpha3beta2 nAChR expressed in Xenopus laevis oocytes assessed as inhibition of ACh-induced current amplitude at -80 mV holding potential at 1 uM by two-electrode voltage clamp method; format: cell-based; details: Oocyte, filed as antagonist
Mus musculus [2] = experiment: Analgesic activity in chronic constriction injury-induced mechanical pain mouse model assessed as increase in paw withdrawal latency at 25 ug/kg measured after 24 hrs; format: functional, organism-based; details: dose 25.0 µg/kg
[3] = biological target: T1, Neuronal acetylcholine receptor; alpha3/beta2; experiment: Antagonist activity at human alpha3beta2 nAChR expressed in Xenopus laevis oocytes assessed as inhibition of ACh-induced current amplitude at -80 mV holding potential at 100 nM by two-electrode voltage clamp method; format: cell-based; details: Oocyte, filed as antagonist
[4] = biological target: Neuronal acetylcholine receptor; alpha9/alpha10 (Homo sapiens, UniProt Q9GZZ6+Q9UGM1); experiment: Antagonist activity at human alpha9alpha10 nAChR expressed in Xenopus laevis oocytes assessed as inhibition of ACh-induced current amplitude at -80 mV holding potential by two-electrode voltage clamp method; format: cell-based, Oocyte
[5] = biological target: T1, Neuronal acetylcholine receptor; alpha3/beta2; experiment: Antagonist activity at human alpha3beta2 nAChR expressed in Xenopus laevis oocytes assessed as inhibition of ACh-induced current amplitude at -80 mV holding potential by two-electrode voltage clamp method; format: cell-based, Oocyte
[6] = Antagonist activity at rat alpha9alpha10 nAChR expressed in Xenopus laevis oocytes assessed as inhibition of ACh-induced current amplitude by two-electrode voltage clamp method; format: cell-based; details: Oocyte
Mus musculus [7] = experiment: Analgesic activity in chronic constriction injury-induced mechanical pain mouse model assessed as increase in paw withdrawal latency at 0.5 ug/kg measured after 12 hrs; format: functional, organism-based; details: dose 5.0 µg/kg
[8] = biological target: Neuronal acetylcholine receptor; alpha9/alpha10 (Homo sapiens) (UniProt Q9UGM1+Q9GZZ6); experiment: Antagonist activity at human alpha9alpha10 nAChR expressed in Xenopus laevis oocytes assessed as inhibition of ACh-induced current amplitude at -80 mV holding potential at 100 nM by two-electrode voltage clamp method; format: cell-based; details: Oocyte, filed as antagonist
[9] = biological target: T2, Neuronal acetylcholine receptor subunit alpha-7 (Homo sapiens, UniProt P36544); experiment: Antagonist activity at human alpha7 nAChR expressed in Xenopus laevis oocytes assessed as inhibition of ACh-induced current amplitude at -80 mV holding potential in presence of BAPTA-AM by two-electrode voltage clamp method; format: cell-based, Oocyte
[10] = biological target: T2, Neuronal acetylcholine receptor subunit alpha-7; experiment: Antagonist activity at human alpha7 nAChR expressed in Xenopus laevis oocytes assessed as inhibition of ACh-induced current amplitude at -80 mV holding potential by two-electrode voltage clamp method; format: cell-based, Oocyte
[11] = biological target: Neuronal acetylcholine receptor; alpha3/beta4 (Homo sapiens) (UniProt P30926+P32297); experiment: Antagonist activity at human alpha3beta4 nAChR expressed in Xenopus laevis oocytes assessed as inhibition of ACh-induced current amplitude at -80 mV holding potential at 100 nM by two-electrode voltage clamp method; format: cell-based; details: Oocyte
Mus musculus [12] = experiment: Analgesic activity in chronic constriction injury-induced mechanical pain mouse model assessed as increase in paw withdrawal latency at 2.5 ug/kg measured after 12 hrs; format: functional, organism-based; details: dose 2.5 µg/kg
[13] = biological target: Neuronal acetylcholine receptor; alpha4/beta2 (Homo sapiens) (UniProt P17787+P43681); experiment: Antagonist activity at human alpha4beta2 nAChR expressed in Xenopus laevis oocytes assessed as inhibition of ACh-induced current amplitude at -80 mV holding potential in presence of BAPTA-AM at 100 nM by two-electrode voltage clamp method; format: cell-based; details: Oocyte
[14] = Toxicity in mouse assessed as abnormal motor behavior; details: in vivo
[15] = biological target: T2, Neuronal acetylcholine receptor subunit alpha-7; experiment: Antagonist activity at human alpha7 nAChR expressed in Xenopus laevis oocytes assessed as inhibition of ACh-induced current amplitude at -80 mV holding potential at 100 nM by two-electrode voltage clamp method; format: cell-based; details: Oocyte, filed as antagonist

T2 sequence (P36544 whole entry): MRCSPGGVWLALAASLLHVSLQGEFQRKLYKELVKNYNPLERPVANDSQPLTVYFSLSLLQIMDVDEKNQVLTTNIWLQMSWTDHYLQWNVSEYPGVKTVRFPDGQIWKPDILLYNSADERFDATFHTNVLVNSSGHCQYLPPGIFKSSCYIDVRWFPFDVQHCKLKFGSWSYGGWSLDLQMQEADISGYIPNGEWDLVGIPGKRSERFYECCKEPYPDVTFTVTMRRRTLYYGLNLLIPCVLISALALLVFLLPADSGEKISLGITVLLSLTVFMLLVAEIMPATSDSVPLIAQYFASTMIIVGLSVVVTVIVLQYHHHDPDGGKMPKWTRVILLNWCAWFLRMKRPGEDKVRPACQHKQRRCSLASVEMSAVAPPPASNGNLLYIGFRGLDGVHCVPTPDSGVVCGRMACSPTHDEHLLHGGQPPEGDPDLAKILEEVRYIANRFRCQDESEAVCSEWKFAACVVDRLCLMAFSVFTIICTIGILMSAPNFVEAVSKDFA
T1 sequence (P17787 whole entry): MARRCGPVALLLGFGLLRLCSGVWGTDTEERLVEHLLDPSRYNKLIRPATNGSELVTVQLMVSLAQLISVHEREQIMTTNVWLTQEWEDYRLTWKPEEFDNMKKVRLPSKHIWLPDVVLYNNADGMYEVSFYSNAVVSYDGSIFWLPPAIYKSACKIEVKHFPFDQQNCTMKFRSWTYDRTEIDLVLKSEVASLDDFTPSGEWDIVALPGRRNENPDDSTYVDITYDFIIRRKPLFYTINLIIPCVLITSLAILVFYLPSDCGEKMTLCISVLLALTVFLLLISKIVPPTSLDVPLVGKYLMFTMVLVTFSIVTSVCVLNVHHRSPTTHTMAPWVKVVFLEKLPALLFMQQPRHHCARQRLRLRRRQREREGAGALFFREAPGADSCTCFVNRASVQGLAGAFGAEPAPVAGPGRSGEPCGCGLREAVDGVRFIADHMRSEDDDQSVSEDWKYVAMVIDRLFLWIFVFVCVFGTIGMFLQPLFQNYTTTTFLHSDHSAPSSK
T1 sequence (P32297 whole entry): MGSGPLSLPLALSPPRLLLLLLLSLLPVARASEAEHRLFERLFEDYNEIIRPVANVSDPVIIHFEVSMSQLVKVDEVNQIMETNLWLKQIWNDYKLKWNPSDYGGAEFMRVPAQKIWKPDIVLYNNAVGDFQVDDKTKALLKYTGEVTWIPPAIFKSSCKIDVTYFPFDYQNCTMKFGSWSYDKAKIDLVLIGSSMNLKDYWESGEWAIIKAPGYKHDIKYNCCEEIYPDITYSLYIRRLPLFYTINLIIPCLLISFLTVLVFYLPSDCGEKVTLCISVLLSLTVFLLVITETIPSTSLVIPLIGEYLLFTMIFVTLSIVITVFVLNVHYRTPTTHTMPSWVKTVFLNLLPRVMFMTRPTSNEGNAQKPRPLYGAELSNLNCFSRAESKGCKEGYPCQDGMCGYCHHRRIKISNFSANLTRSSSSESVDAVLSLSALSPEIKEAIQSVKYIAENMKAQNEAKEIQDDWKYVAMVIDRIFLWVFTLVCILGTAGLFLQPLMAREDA
Sequence of Neuronal acetylcholine receptor; alpha9/alpha10 (Q9UGM1 whole entry): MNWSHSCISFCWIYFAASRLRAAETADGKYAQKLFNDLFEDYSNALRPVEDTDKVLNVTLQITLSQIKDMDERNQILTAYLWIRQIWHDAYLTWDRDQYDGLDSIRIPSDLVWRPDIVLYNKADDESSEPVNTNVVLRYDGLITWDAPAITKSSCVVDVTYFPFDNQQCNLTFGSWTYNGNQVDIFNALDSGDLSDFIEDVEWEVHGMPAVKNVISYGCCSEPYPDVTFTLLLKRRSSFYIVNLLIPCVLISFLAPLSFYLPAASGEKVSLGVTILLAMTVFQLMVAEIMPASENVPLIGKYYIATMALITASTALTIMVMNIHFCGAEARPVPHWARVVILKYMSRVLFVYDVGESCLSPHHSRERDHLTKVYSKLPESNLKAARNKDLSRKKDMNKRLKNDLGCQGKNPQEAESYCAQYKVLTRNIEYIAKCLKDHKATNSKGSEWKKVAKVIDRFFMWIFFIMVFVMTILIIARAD
Sequence of Neuronal acetylcholine receptor; alpha9/alpha10 (Q9GZZ6 whole entry): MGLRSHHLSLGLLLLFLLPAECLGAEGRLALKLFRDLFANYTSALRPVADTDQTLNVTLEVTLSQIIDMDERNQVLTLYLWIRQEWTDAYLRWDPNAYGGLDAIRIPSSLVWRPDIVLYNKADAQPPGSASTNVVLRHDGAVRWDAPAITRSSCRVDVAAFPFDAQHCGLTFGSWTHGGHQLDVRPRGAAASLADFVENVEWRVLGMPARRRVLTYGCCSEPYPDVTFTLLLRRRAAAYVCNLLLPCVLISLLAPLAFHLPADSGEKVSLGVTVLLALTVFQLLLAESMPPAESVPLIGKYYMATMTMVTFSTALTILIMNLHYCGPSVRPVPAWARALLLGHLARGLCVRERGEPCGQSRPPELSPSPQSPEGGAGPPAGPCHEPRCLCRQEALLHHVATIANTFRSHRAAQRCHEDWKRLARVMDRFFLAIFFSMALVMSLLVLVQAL

CC[C@H](C)[C@@H]1NC(=O)[C@H](CC(=O)O)NC(=O)[C@@H]2CCCN2C(=O)[C@H](CC(N)=O)NC(=O)[C@H](CC(N)=O)NC(=O)[C@H](C(C)C)NC(=O)[C@H](CO)NC(=O)[C@@H]2CSSC[C@H](NC(=O)CN)C(=O)N[C@@H](CSSC[C@@H](C(N)=O)NC1=O)C(=O)NC(CN)C(=O)N[C@@H](Cc1cnc[nH]1)C(=O)N1CCC[C@H]1C(=O)N[C@@H](C)C(=O)N2 (stereo partly specified) (H-GCC[ξDap]HPACSVNNPDIC-NH2; disulfide 2-8, 3-16)
Activity (Rattus norvegicus): Dde | inhibition [1]: > 95% | Activity (Mus musculus [2]): Active | inhibition [3]: 85% | IC50 [4]: 4 nM | IC50 [5]: 20.6 nM | IC50 [6]: 1.7 nM | Activity (Mus musculus [7]): Active | inhibition [8]: > 85% | IC50 [9]: 265 nM | IC50 [10]: 259 nM | inhibition [11]: 5% | Activity (Mus musculus [12]): Active | inhibition [13]: 5% | Activity [14]: Non-Toxic | inhibition [15]: 90%
